Values joined by “and” are separate entries in the source; they are usually repeats but may differ in a detail not shown here. Equal entries are not always repeated.
How the values were obtained:
[1] = 101 kPa, Liquid
[2] = refractive index (Na D-line) (dimensionless); conditions: 298.15 K; 101.33 kPa; Liquid; Standard Abbe refractometry
[3] = xn = mol fraction of the nth substance listed; conditions: 101 kPa, Liquid

CCCCCCCC [octane]
[1]
Conditions | mass density
298.15 K | 698.62 kg/m3 [middle of 4 runs]
308.15 K | 690.44 kg/m3 and 690.43 kg/m3 and 690.45 kg/m3
318.15 K | 682.47 kg/m3 and 682.49 kg/m3
328.15 K | 674.55 kg/m3 and 674.56 kg/m3 and 674.54 kg/m3

Conditions | refractive index
[2] | 1.395

CCCCCCCC [octane] + Cc1cc(C)cc(C)c1
[3], x1 = 1
Conditions | mass density [kg/m3]
298.15 K | 698.62
308.15 K | 690.45
318.15 K | 682.49
328.15 K | 674.54

CCCCCCCC [octane] + Cc1cccc(C)c1
[3], x1 = 1
Conditions | mass density [kg/m3]
298.15 K | 698.63
308.15 K | 690.43
318.15 K | 682.49
328.15 K | 674.56

CCCCCCCC [octane] + Cc1ccccc1
mass density [kg/m3], [3]
Conditions | 298.15 K | 308.15 K | 318.15 K | 328.15 K
x1 = 0.0654 | 845.89 | 836.6 | – | –
x1 = 0.0675 | – | – | 826.95 | 817.77
x1 = 0.1229 | – | – | 814.22 | 805.12
x1 = 0.1283 | 831.23 | 822.06 | – | –
x1 = 0.1979 | 816.17 | 807.1 | – | –
x1 = 0.2052 | – | – | 796.69 | 787.73
x1 = 0.2524 | 805.13 | 796.14 | – | –
x1 = 0.2613 | – | – | 785.56 | 776.68
x1 = 0.312 | 793.74 | 784.82 | – | –
x1 = 0.3142 | – | – | 775.67 | 766.87
x1 = 0.3931 | 779.27 | 770.46 | – | –
x1 = 0.398 | – | – | 761 | 752.32
x1 = 0.4544 | 769.05 | 760.31 | – | –
x1 = 0.4553 | – | – | 751.61 | 743.01
x1 = 0.5388 | – | – | 738.82 | 730.32
x1 = 0.5409 | 755.59 | 746.93 | – | –
x1 = 0.6029 | 746.56 | 737.98 | – | –
x1 = 0.6078 | – | – | 728.94 | 720.55
x1 = 0.6679 | – | – | 720.81 | 712.48
x1 = 0.6717 | 737.09 | 728.58 | – | –
x1 = 0.7202 | 730.75 | 722.3 | – | –
x1 = 0.7262 | – | – | 713.32 | 705.06
x1 = 0.7985 | – | – | 704.51 | 696.33
x1 = 0.8064 | 720.08 | 711.7 | – | –
x1 = 0.863 | – | – | 697.07 | 688.97
x1 = 0.8727 | 712.36 | 704.05 | – | –
x1 = 0.9143 | – | – | 691.43 | 683.39
x1 = 0.9312 | 705.88 | 697.62 | – | –
x1 = 1 | 698.61 | 690.44 | 682.49 | 674.55

CCCCCCCC [octane] + c1ccccc1
[3]
Conditions | mass density [kg/m3]
298.15 K, x1 = 0.06831 | 850.82
298.15 K, x1 = 0.1358 | 831.14
298.15 K, x1 = 0.2041 | 813.51
298.15 K, x1 = 0.2616 | 800.23
298.15 K, x1 = 0.3322 | 785.49
298.15 K, x1 = 0.3912 | 774.33
298.15 K, x1 = 0.4581 | 762.82
298.15 K, x1 = 0.5388 | 750.32
298.15 K, x1 = 0.6054 | 740.95
298.15 K, x1 = 0.664 | 733.37
298.15 K, x1 = 0.7116 | 727.59
298.15 K, x1 = 0.7979 | 717.91
298.15 K, x1 = 0.8682 | 710.7
298.15 K, x1 = 0.9264 | 705.15
298.15 K, x1 = 1 | 698.6
308.15 K, x1 = 0.06734 | 840.85
308.15 K, x1 = 0.1335 | 821.8
308.15 K, x1 = 0.1989 | 804.98
308.15 K, x1 = 0.2562 | 791.81
308.15 K, x1 = 0.3283 | 776.91
308.15 K, x1 = 0.3888 | 765.56
308.15 K, x1 = 0.4682 | 752.18
308.15 K, x1 = 0.5284 | 742.95
308.15 K, x1 = 0.5971 | 733.35
308.15 K, x1 = 0.6592 | 725.32
308.15 K, x1 = 0.7248 | 717.54
308.15 K, x1 = 0.8156 | 707.74
308.15 K, x1 = 0.8852 | 700.86
308.15 K, x1 = 0.9515 | 694.77
308.15 K, x1 = 1 | 690.44
318.15 K, x1 = 0.06734 | 830.41
318.15 K, x1 = 0.1335 | 811.7
318.15 K, x1 = 0.1932 | 796.52
318.15 K, x1 = 0.2511 | 783.28
318.15 K, x1 = 0.3289 | 767.43
318.15 K, x1 = 0.3937 | 755.54
318.15 K, x1 = 0.4681 | 743.19
318.15 K, x1 = 0.5302 | 733.8
318.15 K, x1 = 0.5866 | 726.02
318.15 K, x1 = 0.6709 | 715.36
318.15 K, x1 = 0.7248 | 709.07
318.15 K, x1 = 0.8156 | 699.39
318.15 K, x1 = 0.8852 | 692.61
318.15 K, x1 = 0.9515 | 686.61
318.15 K, x1 = 1 | 682.47
328.15 K, x1 = 0.06734 | 820.09
328.15 K, x1 = 0.1335 | 801.67
328.15 K, x1 = 0.1932 | 786.83
328.15 K, x1 = 0.2511 | 773.79
328.15 K, x1 = 0.3289 | 758.15
328.15 K, x1 = 0.3937 | 746.47
328.15 K, x1 = 0.4681 | 734.35
328.15 K, x1 = 0.5302 | 725.13
328.15 K, x1 = 0.5866 | 717.46
328.15 K, x1 = 0.6709 | 706.93
328.15 K, x1 = 0.7248 | 700.75
328.15 K, x1 = 0.8156 | 691.2
328.15 K, x1 = 0.8852 | 684.52
328.15 K, x1 = 0.9515 | 678.62
328.15 K, x1 = 1 | 674.54

Cc1ccccc1 [toluene]
[1]
Conditions | mass density [kg/m3]
298.15 K | 862.29
308.15 K | 852.86
318.15 K | 843.6
328.15 K | 834.29

Conditions | refractive index
[2] | 1.4941

Cc1ccccc1 [toluene] + CCCCCCCC
[3], x2 = 0
Conditions | mass density [kg/m3]
298.15 K | 862.29
308.15 K | 852.86
318.15 K | 843.6
328.15 K | 834.29

From the NIST ThermoML archive (doi:10.1016/j.jct.2007.10.010)
